# Measurements reported in publication PMC9636434, “Discovery of small molecule agonists of the Relaxin Family Peptide Receptor 2” (Communications Biology, 2022).
# Where “and” joins values, the source holds several entries; their conditions need not be identical. Identical values can stand only once. Like-named read-outs stand apart in the source and are kept apart here.
# Columns and labels:
# [1] = Pharmacokinetic study, single 30 mg/kg IP dose, plasma, liver and bone; assay type: in vivo, mouse; set-up: levels in plasma, liver, and bone: scale not given here; details: for Bone concentration / Liver concentration / Plasma concentration / concentration at 2 h / concentration at 12 h / concentration at 0.083 h / concentration at 0.25 h / concentration at 1 h: IP
# Experimental: The concentration of compound in plasma, liver, and long bones was detected using liquid chromatography tandem mass spectrometry (LC-MS/MS). Samples were collected after a single intraperitoneal (IP) administration at 30 mg/kg, a single intravenous (IV) administration at 3 mg/kg, a single oral (PO) administration at 10 mg/kg, and a daily PO administration for 3 consecutive days at 10 mg/kg. The compound was formulated in 75% PEG300 + 25% of 40% aq. HPBCD for IV and PO administration and in 60% Phosal + 40% PEG300 for IP administration. All tissue samples were homogenized in water at a tissue weight to water volume ratio 1:3.
# single dose IP administration. a Plasma, b liver and c bone profiles in female mice.
# The actual concentration (ng/g) is the detected value (ng/mL) multiplied by 4. Drug
# vehicle is 60% Phosal : 40% PEG300. 3 mice were used per time point. Results are
# expressed as the mean ± SEM.
# [2] = biological target: FPR1 (Homo sapiens, UniProt P21462); test: PRESTO-Tango β-arrestin recruitment, FPR1; assay type: cell-based; details: 10 µM compound; basal level of detection 3-fold RLU
# [3] = biological target: T1, human ADORA1 (Homo sapiens, UniProt P30542); test: GloSensor cAMP inhibition assay in ADORA1 transiently transfected HEK293T cells; assay type: cell-based; details: for RLU: replicates (1)-(4)
# T1 sequence (P30542 1-326): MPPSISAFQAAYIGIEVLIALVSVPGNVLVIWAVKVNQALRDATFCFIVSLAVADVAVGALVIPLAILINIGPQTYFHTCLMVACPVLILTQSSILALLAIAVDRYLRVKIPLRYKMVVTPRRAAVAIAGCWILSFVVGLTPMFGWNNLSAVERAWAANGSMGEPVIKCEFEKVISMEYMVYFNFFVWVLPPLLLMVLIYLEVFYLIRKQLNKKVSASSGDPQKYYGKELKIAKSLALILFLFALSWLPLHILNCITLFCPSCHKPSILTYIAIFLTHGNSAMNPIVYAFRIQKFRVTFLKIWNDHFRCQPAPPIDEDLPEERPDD
# Experimental: β-arrestin is an important GPCR adaptor protein that mediates several receptor processes including signaling, desensitization, and trafficking. […] GPCR-mediated β-arrestin recruitment for a panel of 320 human GPCRs was studied in transiently transfected HTLA cells treated with 10 µM compound. The results for all 320 GPCRs tested are summarized in Supplementary Data 1. […] ADORA1 activation by an agonist results in Gαi protein binding, an inhibition of adenylate cyclase and, therefore, a decrease in the cAMP concentration.
# Experiments to analyze the cAMP response in RXFP3, RXFP4, and ADORA1 transiently transfected HEK293T cells was performed in the National Institute of Mental Health’s Psychoactive Drug Screening Program, Contract #HHSN-271-2018-00023-C (NIMH PDSP).
# ADORA1 activation. cAMP in HEK293T cells transiently transfected with human
# ADORA1 was induced by treatment with 0.1 µM of isoproterenol. cAMP inhibition is
# Results are reported as raw
# RLU values and represent the mean ± SEM of 4 technical replicates.
# (1 picture or pasted object on this page, not shown here)
# [4] = biological target: RXFP2 (Homo sapiens, UniProt Q8WXD0); test: PRESTO-Tango β-arrestin recruitment, RXFP2; assay type: cell-based; set-up: host or cells: HTLA (transient); details: 10 µM compound
# Experimental: β-arrestin is an important GPCR adaptor protein that mediates several receptor processes including signaling, desensitization, and trafficking. The PRESTO-Tango GPCRome assay was further used to test specificity and selectivity of lead RXFP2 agonists 6641 and 4337. GPCR-mediated β-arrestin recruitment for a panel of 320 human GPCRs was studied in transiently transfected HTLA cells treated with 10 µM compound. The results for all 320 GPCRs tested are summarized in Supplementary Data 1. […] ADORA1 activation by an agonist results in Gαi protein binding, an inhibition of adenylate cyclase and, therefore, a decrease in the cAMP concentration.
# To further investigate possible off-target effects of small molecule agonists of RXFP2 on GPCRs, we performed a PRESTO-Tango assay of 320 GPCRs to detect β-arrestin recruitment to the receptors after treatment with our compounds. […] This might be beneficial in clinical applications, as it potentially reduces the amount of drug needed to induce a biological response for this target, even in cells with low receptor expression. It should be noted also that a PRESTO-Tango assay is not designed to detect inhibitors of β-arrestin recruitment.
# The PRESTO-Tango GPCRome assay was used to perform a HTS of related GPCRs to study specificity and selectivity of the RXFP2 agonists by measuring β-arrestin translocation activity. […]
# [5] = Time 0.083 h, individual values (1)-(3)
# [6] = Time 0.25 h, individual values (1)-(3)
# [7] = Time 0.5 h, individual values (1)-(3)
# [8] = Time 1 h, individual values (1)-(3)
# [9] = Time 2 h, individual values (1)-(3)
# [10] = Time 4 h, individual values (1)-(3)
# [11] = Time 8 h, individual values (1)-(3)
# [12] = Time 12 h, individual values (1)-(3)
# [13] = single 30 mg/kg IP, female mice
# Sequence of FPR1 (P21462 whole entry): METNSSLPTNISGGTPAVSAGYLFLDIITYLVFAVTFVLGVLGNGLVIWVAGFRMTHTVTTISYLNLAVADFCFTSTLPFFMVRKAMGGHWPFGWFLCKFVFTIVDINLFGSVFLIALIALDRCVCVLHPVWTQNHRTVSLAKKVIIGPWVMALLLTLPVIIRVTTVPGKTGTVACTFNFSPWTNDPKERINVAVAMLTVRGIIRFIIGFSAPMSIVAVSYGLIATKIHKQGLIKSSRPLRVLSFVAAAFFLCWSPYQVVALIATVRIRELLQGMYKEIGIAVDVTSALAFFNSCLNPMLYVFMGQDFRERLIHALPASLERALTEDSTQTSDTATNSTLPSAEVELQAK
# Sequence of RXFP2 (Q8WXD0 whole entry): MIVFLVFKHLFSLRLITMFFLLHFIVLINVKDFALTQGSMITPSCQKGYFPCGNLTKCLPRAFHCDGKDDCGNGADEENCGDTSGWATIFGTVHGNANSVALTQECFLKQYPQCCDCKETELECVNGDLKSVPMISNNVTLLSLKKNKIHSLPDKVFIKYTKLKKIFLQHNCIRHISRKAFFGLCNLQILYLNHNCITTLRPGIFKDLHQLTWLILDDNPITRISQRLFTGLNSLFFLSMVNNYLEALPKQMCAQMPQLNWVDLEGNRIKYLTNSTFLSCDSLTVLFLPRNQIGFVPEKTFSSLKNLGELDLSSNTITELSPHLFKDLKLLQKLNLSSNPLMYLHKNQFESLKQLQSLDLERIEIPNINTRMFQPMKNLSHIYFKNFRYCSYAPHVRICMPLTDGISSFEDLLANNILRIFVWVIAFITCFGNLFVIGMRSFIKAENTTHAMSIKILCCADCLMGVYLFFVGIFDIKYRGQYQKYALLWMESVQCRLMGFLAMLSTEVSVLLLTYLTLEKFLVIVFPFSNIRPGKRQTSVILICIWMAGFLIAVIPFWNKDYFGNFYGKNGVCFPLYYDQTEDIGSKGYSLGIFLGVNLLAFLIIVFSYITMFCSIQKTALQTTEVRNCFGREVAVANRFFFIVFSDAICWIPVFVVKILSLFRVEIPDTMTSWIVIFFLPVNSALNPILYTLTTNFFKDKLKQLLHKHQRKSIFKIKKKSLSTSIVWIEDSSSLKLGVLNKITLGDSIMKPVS
compound,measurement,setting,value
O=C1Nc2ccc(-c3cc(C(F)(F)F)cc(C(F)(F)F)c3)cc2C(=O)N2CCN(C(=O)COc3ccc(OC(F)(F)F)cc3I)C[C@@H]12 [compound 6641],Bone concentration,[1]; [5],307 ng/g and 205 ng/g and 624 ng/g
same,Liver concentration,[1]; [5],1132 ng/g and 1016 ng/g
same,Plasma concentration,[1]; [5],42.7 ng/mL and 44.4 ng/mL
same,Bone concentration,[1]; [6],618 ng/g and 42.7 ng/g and 69 ng/g
same,Liver concentration,[1]; [6],1852 ng/g and 1212 ng/g
same,Plasma concentration,[1]; [6],135 ng/mL and 133 ng/mL
same,Bone concentration,[1]; [7],79.8 ng/g and 96 ng/g and 167 ng/g
same,Liver concentration,[1]; [7],2324 ng/g and 2784 ng/g
same,Plasma concentration,[1]; [7],259 ng/mL and 440 ng/mL
same,Bone concentration,[1]; [8],204 ng/g and 273 ng/g and 532 ng/g
same,Liver concentration,[1]; [8],4720 ng/g and 3880 ng/g
same,Plasma concentration,[1]; [8],507 ng/mL and 673 ng/mL
same,Bone concentration,[1]; [9],346 ng/g and 472 ng/g
same,Liver concentration,[1]; [9],10000 ng/g and 4520 ng/g and 5600 ng/g
same,Plasma concentration,[1]; [9],819 ng/mL and 1140 ng/mL
same,Bone concentration,[1]; [10],708 ng/g and 1566 ng/g and 1740 ng/g
same,Liver concentration,[1]; [10],15760 ng/g and 16960 ng/g
same,Plasma concentration,[1]; [10],2340 ng/mL and 4780 ng/mL and 5300 ng/mL
same,Bone concentration,[1]; [11],3162 ng/g and 948 ng/g and 3258 ng/g
same,Liver concentration,[1]; [11],19080 ng/g and 9320 ng/g and 24920 ng/g
same,Plasma concentration,[1]; [11],3040 ng/mL and 3010 ng/mL
same,Bone concentration,[1]; [12],1716 ng/g and 1458 ng/g
same,Liver concentration,[1]; [12],18480 ng/g and 15600 ng/g
same,Plasma concentration,[1]; [12],3930 ng/mL and 2630 ng/mL
same,concentration at 2 h,"[1]; female, C57BL/6 J, mouse, bone, ip, 30 mg/kg, Time 2 h, individual values (1)-(3), read-out: Bone concentration",492 ng/g
same,concentration at 12 h,"[1]; female, C57BL/6J, mouse, bone, ip, 30 mg/kg, Time 12 h, individual values (1)-(3), read-out: Bone concentration",2830 ng/g
same,concentration at 0.083 h,"[1]; female, C57BL/6J, mouse, liver, ip, 30 mg/kg, Time 0.083 h, individual values (1)-(3), read-out: Liver concentration",1060 ng/g
same,concentration at 0.25 h,"[1]; female, C57BL/6J, mouse, liver, ip, 30 mg/kg, Time 0.25 h, individual values (1)-(3), read-out: Liver concentration",1800 ng/g
same,concentration at 1 h,"[1]; female, C57BL/6J, mouse, liver, ip, 30 mg/kg, Time 1 h, individual values (1)-(3), read-out: Liver concentration",4920 ng/g
same,concentration at 12 h,"[1]; female, C57BL/6J, mouse, liver, ip, 30 mg/kg, Time 12 h, individual values (1)-(3), read-out: Liver concentration",13600 ng/g
same,concentration at 0.5 h,"[1]; female, C57BL/6J, mouse, liver, ip, 30 mg/kg, Time 0.5 h, individual values (1)-(3)",3040 ng/g
same,concentration at 4 h,"[1]; female, C57BL/6J, mouse, liver, ip, 30 mg/kg, Time 4 h, individual values (1)-(3)",11000 ng/g
same,concentration at 0.083 h,"[1]; female, C57BL/6J, mouse, plasma, ip, 30 mg/kg, Time 0.083 h, individual values (1)-(3), read-out: Plasma concentration",60.9 ng/mL
same,concentration at 0.25 h,"[1]; female, C57BL/6J, mouse, plasma, ip, 30 mg/kg, Time 0.25 h, individual values (1)-(3), read-out: Plasma concentration",132 ng/mL
same,concentration at 1 h,"[1]; female, C57BL/6J, mouse, plasma, ip, 30 mg/kg, Time 1 h, individual values (1)-(3), read-out: Plasma concentration",627 ng/mL
same,concentration at 2 h,"[1]; female, C57BL/6J, mouse, plasma, ip, 30 mg/kg, Time 2 h, individual values (1)-(3), read-out: Plasma concentration",1160 ng/mL
same,concentration at 12 h,"[1]; female, C57BL/6J, mouse, plasma, ip, 30 mg/kg, Time 12 h, individual values (1)-(3), read-out: Plasma concentration",2750 ng/mL
same,concentration at 8 h,"[1]; female, C57BL/6J, mouse, plasma, ip, 30 mg/kg, Time 8 h, individual values (1)-(3)",2190 ng/mL
same,"duration of stable levels in plasma, liver, and bone",[1]; [13],at least 12 h
same,"levels in plasma, liver, and bone",[1]; [13],single/double digit
same,"β-arrestin recruitment, FPR1 (mean ± SEM)",[2],3.11 ± 0.29 fold RLU
same,RLU,[3]; Log [M] -5,501.695 RLU and 432.184 RLU and 479.802 RLU
same,RLU,[3]; Log [M] -5.52,440.941 RLU and 426.71 RLU and 354.463 RLU and 361.031 RLU
same,RLU,[3]; Log [M] -6,417.406 RLU and 427.258 RLU and 437.11 RLU and 429.447 RLU
same,RLU,[3]; Log [M] -6.52,436.015 RLU and 453.53 RLU and 363.767 RLU and 397.155 RLU
same,RLU,[3]; Log [M] -7,393.323 RLU and 486.917 RLU and 461.192 RLU and 440.394 RLU
same,RLU,[3]; Log [M] -7.52,405.912 RLU and 426.71 RLU and 325.454 RLU and 420.142 RLU
same,RLU,[3]; Log [M] -8,517.02 RLU and 436.015 RLU and 373.619 RLU and 451.34 RLU
same,RLU,[3]; Log [M] -8.52,377.126 RLU and 431.072 RLU and 331.699 RLU and 385.644 RLU
same,RLU,[3]; Log [M] -9,420.424 RLU and 419.005 RLU and 360.091 RLU and 409.777 RLU
same,RLU,[3]; Log [M] -9.52,407.648 RLU and 406.938 RLU and 409.777 RLU and 342.346 RLU
same,cAMP inhibition in ADORA1-HEK293T transfected cells,[3]; cAMP induced by 0.1 µM isoproterenol,failed to detect any significant changes
same,RXFP2-mediated β-arrestin recruitment,[4],not detected
